# pIC50: −log10 of the molar value. Read-outs that look alike come from different tables or passages of the source.
# Experiments:
# [1] = target: human sodium channel NaV1.2 (Homo sapiens, UniProt Q99250); test: NaV1.2 inhibition, automated patch-clamp (Q-Patch HTX), slow inactivated state (state C); format: cell-based; settings: hNaV1.2 CHO cells, slow inactivated state; for pIC50: read-out: NaV1.2 IC50; for inhibition at 10 µM: 10 μM compound, read-out: NaV1.2 (% inh), 10 μM; for inhibition at 1 µM: 1 μM compound, read-out: NaV1.2 (% inh), 1 μM
# Sequence of human sodium channel NaV1.2 (Q99250 whole entry): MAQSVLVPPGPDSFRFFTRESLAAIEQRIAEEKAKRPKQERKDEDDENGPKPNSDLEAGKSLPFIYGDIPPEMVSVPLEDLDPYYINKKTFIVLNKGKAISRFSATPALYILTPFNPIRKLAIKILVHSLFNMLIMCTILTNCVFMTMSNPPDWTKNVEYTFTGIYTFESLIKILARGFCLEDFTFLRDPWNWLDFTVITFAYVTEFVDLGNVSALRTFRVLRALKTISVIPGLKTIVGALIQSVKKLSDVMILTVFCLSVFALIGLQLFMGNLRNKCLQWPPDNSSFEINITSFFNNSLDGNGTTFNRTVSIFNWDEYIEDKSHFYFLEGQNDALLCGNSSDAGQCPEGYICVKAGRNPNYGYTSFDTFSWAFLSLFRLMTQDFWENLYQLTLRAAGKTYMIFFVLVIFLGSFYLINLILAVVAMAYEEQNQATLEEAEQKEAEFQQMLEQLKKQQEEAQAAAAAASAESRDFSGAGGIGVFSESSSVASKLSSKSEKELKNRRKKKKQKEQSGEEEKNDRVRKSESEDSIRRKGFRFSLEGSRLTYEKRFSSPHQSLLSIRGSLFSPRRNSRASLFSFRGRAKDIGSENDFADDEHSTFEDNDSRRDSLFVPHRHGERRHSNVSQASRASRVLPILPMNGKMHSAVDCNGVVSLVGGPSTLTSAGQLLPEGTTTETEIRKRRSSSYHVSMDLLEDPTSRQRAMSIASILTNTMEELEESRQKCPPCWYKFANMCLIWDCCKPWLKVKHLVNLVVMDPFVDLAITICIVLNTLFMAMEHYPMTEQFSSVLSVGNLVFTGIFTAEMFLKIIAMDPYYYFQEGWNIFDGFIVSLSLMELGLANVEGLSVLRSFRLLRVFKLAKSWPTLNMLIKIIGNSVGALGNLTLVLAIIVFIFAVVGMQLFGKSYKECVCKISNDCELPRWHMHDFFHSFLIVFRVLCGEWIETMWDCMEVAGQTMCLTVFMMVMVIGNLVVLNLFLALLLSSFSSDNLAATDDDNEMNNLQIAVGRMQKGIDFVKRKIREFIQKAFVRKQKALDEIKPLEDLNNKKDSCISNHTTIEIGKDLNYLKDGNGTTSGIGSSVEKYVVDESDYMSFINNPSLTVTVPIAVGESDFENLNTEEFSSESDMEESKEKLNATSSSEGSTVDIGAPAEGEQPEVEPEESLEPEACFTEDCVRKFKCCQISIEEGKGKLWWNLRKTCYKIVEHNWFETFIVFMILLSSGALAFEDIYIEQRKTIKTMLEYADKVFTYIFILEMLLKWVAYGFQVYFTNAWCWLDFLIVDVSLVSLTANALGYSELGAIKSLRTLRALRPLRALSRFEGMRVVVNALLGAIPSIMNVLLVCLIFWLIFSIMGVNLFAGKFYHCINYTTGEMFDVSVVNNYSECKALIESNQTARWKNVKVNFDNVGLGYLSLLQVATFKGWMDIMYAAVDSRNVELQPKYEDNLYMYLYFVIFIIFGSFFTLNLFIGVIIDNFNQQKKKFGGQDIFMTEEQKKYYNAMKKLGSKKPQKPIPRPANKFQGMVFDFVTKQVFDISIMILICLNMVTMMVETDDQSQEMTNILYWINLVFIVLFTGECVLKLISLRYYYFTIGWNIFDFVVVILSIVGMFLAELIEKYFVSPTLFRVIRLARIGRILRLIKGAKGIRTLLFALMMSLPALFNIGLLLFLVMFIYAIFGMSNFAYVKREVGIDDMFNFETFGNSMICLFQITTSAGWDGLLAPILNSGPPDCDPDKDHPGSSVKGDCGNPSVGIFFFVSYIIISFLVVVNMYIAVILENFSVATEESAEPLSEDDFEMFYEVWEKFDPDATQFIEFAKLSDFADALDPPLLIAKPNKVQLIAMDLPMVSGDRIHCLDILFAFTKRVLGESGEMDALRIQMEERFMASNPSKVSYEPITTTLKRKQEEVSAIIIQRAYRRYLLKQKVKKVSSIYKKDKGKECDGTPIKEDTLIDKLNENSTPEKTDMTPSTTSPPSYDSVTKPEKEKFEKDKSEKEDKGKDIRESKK
# Procedure, shortened: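 CHO K-1 cells stably expressing human NaV1.2, whole-cell automated patch clamp, holding −100 mV; slow-inactivated state (state C) read at a 5 ms step to 0 mV after 10 s at −50 mV and 15 ms at −90 mV. Percent inhibition vs vehicle; IC50 by nonlinear least-squares fit.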
# [2] = target: T1, recombinant human serotonin receptor 5-HT2A (Homo sapiens, UniProt P28223); test: 5-HT2A antagonist Ca2+ assay in CHO-K1 cells (method A aequorin luminescence / method B FLIPR fluorescence); format: cell-based; settings: antagonist mode vs EC80 of reference agonist, method A or B; for IC50: 5HT2A IC50, μM; for pIC50: read-out: 5HT2A IC50
# T1 construct: expressed in transfected cells; method B: loaded with Ca2+ dye
# T1 sequence (P28223 whole entry): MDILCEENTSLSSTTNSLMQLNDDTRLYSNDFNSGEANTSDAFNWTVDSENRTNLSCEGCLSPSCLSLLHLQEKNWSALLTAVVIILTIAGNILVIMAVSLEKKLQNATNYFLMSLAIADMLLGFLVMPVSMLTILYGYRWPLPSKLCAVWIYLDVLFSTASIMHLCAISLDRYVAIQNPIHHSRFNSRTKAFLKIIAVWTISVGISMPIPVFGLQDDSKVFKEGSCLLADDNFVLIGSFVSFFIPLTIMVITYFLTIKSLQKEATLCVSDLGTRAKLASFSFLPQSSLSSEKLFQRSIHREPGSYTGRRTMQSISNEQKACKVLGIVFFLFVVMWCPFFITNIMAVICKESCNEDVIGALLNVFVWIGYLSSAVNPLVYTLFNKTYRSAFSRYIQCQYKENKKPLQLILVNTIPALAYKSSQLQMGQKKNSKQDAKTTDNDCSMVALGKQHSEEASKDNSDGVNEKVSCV
# Procedure, shortened: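 Method A: CHO-K1 cells co-expressing human 5-HT2A and mitochondrial apoaequorin were given reference agonist at EC80 15 min after compound, with luminescence read. Method B: dye-loaded 5-HT2A CHO-K1 cells were pretreated with compound, then given serotonin at EC80, with FLIPR fluorescence read. IC50s came from nonlinear fits of percent inhibition.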
SMILES,pIC50 [1],IC50 [2],inhibition at 10 µM [1],pIC50 [2],inhibition at 1 µM [1]
"OC(COC1CCCCC1)CN1[C@@H]2CC[C@H]1CN(c1ccccc1)C2 (stereo partly drawn) [Example 286, 1-(cyclohexyloxy)-3-((1R,5S)-3-phenyl-3,8-diazabicyclo[3.2.1]octan-8-yl)propan-2-ol]",5.90,0.01 µM,–,–,–
"O[C@H](COC1CCCCC1)CN1[C@@H]2CC[C@H]1CN(c1ccccc1)C2 [Example 287, (S)-1-(cyclohexyloxy)-3-((1R,5S)-3-phenyl-3,8-diazabicyclo[3.2.1]octan-8-yl)propan-2-ol]",6.24,0.03 µM,–,–,–
"O[C@@H](COC1CCCCC1)CN1[C@@H]2CC[C@H]1CN(c1ccccc1)C2 [Example 288, (R)-1-(cyclohexyloxy)-3-((1R,5S)-3-phenyl-3,8-diazabicyclo[3.2.1]octan-8-yl)propan-2-ol]",6.36,0.04 µM,–,–,–
"OC(COC1CCCCC1)CN1C[C@H]2C[C@@H](C1)N2c1ccccc1 (stereo partly drawn) [Example 294, 1-(cyclohexyloxy)-3-((1R,5S)-6-phenyl-3,6-diazabicyclo[3.1.1]heptan-3-yl)propan-2-ol]",–,–,47%,6.55,–
"c1ccc(N2[C@@H]3CC[C@H]2CN(CC2CCc4ccccc42)C3)cc1 (stereo partly drawn) [Example 295, (1R,5S)-3-((2,3-dihydro-1H-inden-1-yl)methyl)-8-phenyl-3,8-diazabicyclo[3.2.1]octane]",–,–,–,< 4.78,2%
"O=C1c2ccccc2CCN1CCN1C[C@H]2CC[C@@H](C1)N2c1ccccc1 [Example 297, 2-(2-((1R,5S)-8-phenyl-3,8-diazabicyclo[3.2.1]octan-3-yl)ethyl)-3,4-dihydroisoquinolin-1(2H)-one]",–,–,–,< 4.78,-4%
"OC(COC1CCCCC1)CN1C[C@H]2CC[C@@H](C1)N2c1ccccc1 (stereo partly drawn) [Example 299, 1-(cyclohexyloxy)-3-((1R,5S)-8-phenyl-3,8-diazabicyclo[3.2.1]octan-3-yl)propan-2-ol]",5.45,–,–,5.76,–
"c1ccc(N2C[C@@H]3C[C@H]2CN3CC2CCc3ccccc32)cc1 (stereo partly drawn) [Example 303, (1S,4S)-2-((2,3-dihydro-1H-inden-1-yl)methyl)-5-phenyl-2,5-diazabicyclo[2.2.1]heptane]",5.74,–,–,5.59,–
"O=C1c2ccccc2CCN1CCN1C[C@@H]2C[C@H]1CN2c1ccccc1 [Example 304, 2-(2-((1S,4S)-5-phenyl-2,5-diazabicyclo[2.2.1]heptan-2-yl)ethyl)-3,4-dihydroisoquinolin-1(2H)-one]",–,–,–,5.15,4%
"OC(COC1CCCCC1)CN1C[C@@H]2C[C@H]1CN2c1ccccc1 (stereo partly drawn) [Example 306, 1-(cyclohexyloxy)-3-((1S,4S)-5-phenyl-2,5-diazabicyclo[2.2.1]heptan-2-yl)propan-2-ol]",–,–,60%,5.78,–
"O[C@@H](COC1CCCCC1)CN1C[C@@H]2C[C@H]1CN2Cc1ccccc1 [Example 308, (R)-1-((1S,4S)-5-benzyl-2,5-diazabicyclo[2.2.1]heptan-2-yl)-3-(cyclohexyloxy)propan-2-ol]",–,–,27%,5.40,–
"O[C@H](COC1CCCCC1)CN1C[C@@H]2C[C@H]1CN2Cc1ccccc1 [Example 309, (S)-1-((1S,4S)-5-benzyl-2,5-diazabicyclo[2.2.1]heptan-2-yl)-3-(cyclohexyloxy)propan-2-ol]",–,–,52%,5.32,–
"c1ccc(N2C[C@@H]3CC[C@H]2CN3CCC2COCc3ccccc32)cc1 (stereo partly drawn) [Example 315, (1S,4S)-2-(2-(isochroman-4-yl)ethyl)-5-phenyl-2,5-diazabicyclo[2.2.2]octane]",–,–,–,5.28,5%
"O=C1c2ccccc2CCN1CCN1C[C@@H]2CC[C@H]1CN2c1ccccc1 [Example 316, 2-(2-((1S,4S)-5-phenyl-2,5-diazabicyclo[2.2.2]octan-2-yl)ethyl)-3,4-dihydroisoquinolin-1(2H)-one]",7.10,–,–,5.50,–

# From patent publication US11186564B2, “Dual NAV1.2/5HT2a inhibitors for treating CNS disorders” (Sunovion Pharmaceuticals Inc., priority 2016, dated 2021)
